How the values were obtained:
[1] = system: FXa/ATIII inhibited by fondaparinux; assay: In vitro FXa/ATIII enzymatic assay of anti-fondaparinux activity; type: biochemical, human; conditions: for Restoration of FXa protease activity (hydrolysis rate of the peptide substrate): 15 μM fond + 9 or 15 μM antidote, HPLC
Experimental: The activity of two spermine derivatives, 3AC and 3FF, as fond antidotes was evaluated with an in vitro enzymatic assay related to blood coagulation, as previously described (Figure A). , In brief, fond promotes a conformational change in ATIII toward an efficient inhibitor of FXa. Addition of a ligand of fond hinders the inhibitory action of ATIII restoring the FXa hydrolytic activity, which has been used as an indirect measurement of antifond behavior.
Recombinant antithrombin III and coagulation factor Xa were obtained from two different kits, Berichrom Heparin test (SIEMENS) and Kinetichrome Anti-Xa Heparin kit (Iduron). Methods for both kits are similar, but not identical. Differences will be spotted by method A (SIEMENS) and method B (Iduron). Following the manufacturer’s instructions, stock solutions were prepared as follows: human antithrombin III (1 IU/mL) and factor Xa reagent (0.4 μg/mL, human plasma fraction with additives Tris, sodium chloride, and EDTA). Chromogenic substrate specific for factor Xa was dissolved at 4 mM concentration (A: Z-D-Leu-Gly-Arg-ANBA-methyl amide, and B: Z-D-Arg-Gly-Arg-pNA). Additionally, either 4-nitroaniline (A) or N-Boc-4-nitroaniline (B) was added to the substrate solution at a concentration of 1.6 mM and used as an internal standard to quantify the hydrolysis of the chromogenic substrate. All compounds were dissolved in Milli-Q water at the desired stock concentrations prior to start of the assays and kept at 4 °C. Various concentrations of the ligand, fondaparinux (up to 15 μM) or LMWH (0.1 to 10 μM), human antithrombin III solution (2 μL), and factor Xa reagent solution (35 μL) were consecutively added to an Eppendorf vial and brought to a total volume of 145 μL. Then, 20 μL of reagent substrate solution was added to start the experiment, and the mixture was vigorously shaken at 25 °C. 20 μL aliquots were taken at 5/10/15/20/30/50/80/120 minutes, diluted with 40 μL of acetic acid (20% v/v), and injected into the analytical HPLC system. The gradient ranged from 5% of ACN (0.1% formic acid) in water (0.1% formic acid) to 100% of ACN in 24 min using a 15 × 4.6 mm KROMAPHASE C18 5.0 μm column. In A: the retention time of cleaved chromophore was 9.1 min, retention time of chromogenic substrate was 13.9 min, and retention time of 4-nitroaniline was 15.4 min. In B: the retention time of chromogenic substrate was 11.0 min, retention time of cleaved chromophore was 15.2 min, and retention time of N-Boc-4-nitroaniline was 21.7 min. FXa/ATIII activity was represented as the percent of hydrolysis, which was calculated from the normalized area of the cleaved peptide at 405 nm at each corresponding time point. The experiment carried out in the absence of heparinoid was considered as the maximum of activity, while the experiment with heparinoid and no ligand was considered as negative control (maximum inhibition of FXa by heparinoid). The concentration of heparinoid was selected for the measurement to render significant inhibition within experimental time while allowing the reaction to proceed.

Hemolysis assay = type: cell-based; conditions: freshly isolated mouse erythrocytes, roughly 4-5% suspension, 37 °C
Experimental: Mouse blood (4 mL) was collected in a sodium citrate tube and immediately centrifuged at 1700g for 5 min. The supernatant was removed, and the erythrocytes were washed by adding 2 mL of PBS. It was centrifuged again at 1700g for 5 min. The washing step was repeated twice more. The supernatant was finally removed, and the erythrocytes were diluted in PBS until obtaining a roughly 4–5% suspension. 50 μL of erythrocyte solution was mixed with 50 μL of test compound (3×× at the desired concentration). As a negative control, 50 μL of PBS was used, while 10% Triton X-100 was used as a positive control. The samples were incubated at 37 °C for 60 min. After that, they were centrifuged (1700g for 5 min), and the supernatant was transferred to a 96-well plate. Absorbance was measured at 405 nm. The experiment contained three technical replicates. The results are the average from three independent experiments.

HMEC-1 cells = assay: Resazurin cell viability assay; type: cell-based; conditions: for Cell viability (toxicity): HMEC-1, concentrations <100 μM, resazurin
Experimental: (§1) A549 and HeLa cells were maintained in DMEM ([…] glucose, Sigma) containing 10% fetal calf serum (FCS), 2 mM glutamine, 50 U/mL penicillin, and […] streptomycin at 37 °C under a 5% CO2 atmosphere. HMEC-1 and fibroblast cells were maintained in MCDB 131 medium (GIBCO) containing 10% fetal calf serum (FCS), 2 mM glutamine, 50 U/mL penicillin, and […] streptomycin at 37 °C under a 5% CO2 atmosphere.
(§2) The viability of HMEC-1 and fibroblast cells was tested using the resazurin assay. In it, exponentially growing cells were detached from the culture flasks using a trypsin–0.25% EDTA solution, and the cell suspension was seeded onto a 96-well plate (Nunclon) at a concentration of 9k cells/well. Toxicity of 3AC and 3FF was tested as follows: 72 h after seeding, culture medium was discarded and replaced by compound solution in PBS that was diluted with cell culture medium to the final concentration: [3××] = 10 to 100 μM. Resazurin (0.1 mg/mL) was added. After 2 h of incubation, fluorescence was measured (λex = 560 nm // λem = 590 nm) using a spectrophotometric BioTek Synergy 2 Microplate Reader (Agilent). Cell viability is expressed as an emission percent ratio of cells treated with the compound to untreated cells, which were used as a control. The results are the average from three independent experiments. In experiments with fondaparinux, the cells were incubated for 2 h with [fondaparinux] = 100 μM and [3××] = 50/100/200 μM following the same procedure for the rest of the protocol.

fibroblasts = assay: Resazurin cell viability assay; type: cell-based; conditions: for Cell viability (toxicity): concentrations <100 μM, resazurin
Experimental: as §1, §2

[2] = system: freshly extracted mouse blood; assay: Naked-eye ex vivo blood coagulation assay; type: cell-based; conditions: 100 μM fond + 200 μM antidote, 5 min
Experimental: Considering the results obtained in the in vitro assays, we aimed to test our molecules in a more relevant and challenging environment. To this aim, we performed naked-eye ex vivo coagulation assays (Figure ). Freshly extracted mouse blood samples were treated with fond (100 μM final concentration) in the absence and in the presence of different antidotes (two molar equivalents). Blood coagulation was visually inspected by the simple inversion of the vials. For a fair comparison between different series, all of the experiments were done in parallel with the corresponding control samples of untreated mouse blood (labeled “0” in Figure ). […] The effect of antidotes alone on blood coagulation was also tested (Figure B), showing that neither of the three small molecules appreciably changed the coagulation properties.
This naked-eye coagulation test is an adaptation of the whole blood clotting time assay. , Freshly collected mouse blood was directly used without further treatment. 300 μL aliquots were dispensed in Eppendorf tubes, to which fondaparinux (100 μM), and/or potential antidotes (3AC, 3FF, ciraparantag, or protamine, 200 μM) were added, and a picture was taken after 5 min. Clot formation was verified by inverting the Eppendorf vials.

[3] = [fond] = [antidote] = 15 μM, three reaction times

With `Oc1ccccc1CNCCCNCCCCNCCCNCc1ccc2c(c1)Cc1ccccc1-2` [Compound 3AC] the “Restoration of FXa protease activity (hydrolysis rate of the peptide substrate)” value [1] was “restore the FXa protease activity in a dose–response manner”, the “Percent recovery of peptide substrate hydrolysis” value (shortened to “Percent recovery”) ([1]; [fond] = 15 μM, lower antidote concentration (9 μM), Figure S2) was “higher potency” and the “Percent recovery” value [1, 3] was “almost complete fast recovery up to the control values”. The hemolysis at 60 min (Hemolysis assay) was less than 2%, the “Cell toxicity in the presence of fondaparinux” value (HMEC-1 cells; HMEC-1, 100 μM fondaparinux, 50/100/200 μM compound) was “reduced” and the “Cell viability (toxicity)” value (HMEC-1 cells) was “low to acceptable cell toxicity”. The “Cell toxicity in the presence of fondaparinux” value (fibroblasts; 100 μM fondaparinux, 50/100/200 μM compound) was “reduced”, the “Cell viability (toxicity)” value (fibroblasts) was “low to acceptable cell toxicity” and the “Reversal of fond anticoagulant effect (clot formation by vial inversion)” value [2] was “efficiently revert the drug effect”.
For `Oc1ccc2ccccc2c1CNCCCNCCCCNCCCNCc1c(O)ccc2ccccc12` [Compound 3FF], the “Restoration of FXa protease activity (hydrolysis rate of the peptide substrate)” value [1] was “restore the FXa protease activity in a dose–response manner”, the “Percent recovery” value [1, 3] was “almost complete fast recovery up to the control values” and the hemolysis at 60 min (Hemolysis assay) was less than 2%. For the same compound, the “Cell viability (toxicity)” value (HMEC-1 cells) was “low to acceptable cell toxicity”, the “Cell viability (toxicity)” value (fibroblasts) was “low to acceptable cell toxicity” and the “Reversal of fond anticoagulant effect (clot formation by vial inversion)” value [2] was “efficiently revert the drug effect”.

— paper PMC12070314, “Efficient Small-Molecule Reversal Agents for Anticoagulant Fondaparinux” (ACS Pharmacology & Translational Science, 2025)
